Reference: PubChem BioAssay AID1918996 (Molecular Pharmacology Branch, DTP, NCI, 2023)

Test system: 349418-098-R-PDC complex spheroid growth
Test: Anticancer human tumor 349418-098-R-PDC patient-derived lung adenocarcinoma cell line growth inhibition [AhR]
Conditions: for IC50: curve of first compound; for viability, T/C: stronger effect = lower value
Summary of the method: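 Complex tumor spheroids co-cultured with HUVEC and human MSC stroma; AhR antagonists tested in combination with standard-of-care and investigational agents. Top concentration at or near clinical Cmax (else 10 microM), half-log dilutions; growth expressed as percent test/control.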

[1] = second compound 0.1 µM, first compound 0.00949 µM
[2] = second compound 0.1 µM, first compound 0.03 µM
[3] = second compound 0.1 µM, first compound 0.0949 µM
[4] = second compound 0.1 µM, first compound 0.3 µM
[5] = second compound 0.316 µM, first compound 0.00949 µM
[6] = second compound 0.316 µM, first compound 0.03 µM
[7] = second compound 0.316 µM, first compound 0.0949 µM
[8] = second compound 0.316 µM, first compound 0.3 µM
[9] = second compound 1 µM, first compound 0.00949 µM
[10] = second compound 1 µM, first compound 0.03 µM
[11] = second compound 1 µM, first compound 0.0949 µM
[12] = second compound 1 µM, first compound 0.3 µM
[13] = second compound 3.16 µM, first compound 0.00949 µM
[14] = second compound 3.16 µM, first compound 0.03 µM
[15] = second compound 3.16 µM, first compound 0.0949 µM
[16] = second compound 3.16 µM, first compound 0.3 µM
[17] = second compound 10 µM, first compound 0.00949 µM
[18] = second compound 10 µM, first compound 0.03 µM
[19] = second compound 10 µM, first compound 0.0949 µM
[20] = second compound 10 µM, first compound 0.3 µM
[21] = second compound 0.1 µM, first compound 0.0316 µM
[22] = second compound 0.1 µM, first compound 0.1 µM
[23] = second compound 0.1 µM, first compound 0.316 µM
[24] = second compound 0.1 µM, first compound 1 µM
[25] = second compound 0.1 µM, first compound 3.16 µM
[26] = second compound 0.1 µM, first compound 10 µM
[27] = second compound 0.316 µM, first compound 0.0316 µM
[28] = second compound 0.316 µM, first compound 0.1 µM
[29] = second compound 0.316 µM, first compound 0.316 µM
[30] = second compound 0.316 µM, first compound 1 µM
[31] = second compound 0.316 µM, first compound 3.16 µM
[32] = second compound 0.316 µM, first compound 10 µM
[33] = second compound 1 µM, first compound 0.0316 µM
[34] = second compound 1 µM, first compound 0.1 µM
[35] = second compound 1 µM, first compound 0.316 µM
[36] = second compound 1 µM, first compound 1 µM
[37] = second compound 1 µM, first compound 3.16 µM
[38] = second compound 1 µM, first compound 10 µM
[39] = second compound 3.16 µM, first compound 0.0316 µM
[40] = second compound 3.16 µM, first compound 0.1 µM
[41] = second compound 3.16 µM, first compound 0.316 µM
[42] = second compound 3.16 µM, first compound 1 µM
[43] = second compound 3.16 µM, first compound 3.16 µM
[44] = second compound 3.16 µM, first compound 10 µM
[45] = second compound 10 µM, first compound 0.0316 µM
[46] = second compound 10 µM, first compound 0.1 µM
[47] = second compound 10 µM, first compound 0.316 µM
[48] = second compound 10 µM, first compound 1 µM
[49] = second compound 10 µM, first compound 3.16 µM
[50] = second compound 10 µM, first compound 10 µM
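Note: spheroids exposed to agents for seven days before luminescence viability read.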
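Throughout, for viability, T/C: spheroids also contain HUVEC endothelial cells and human MSC stroma.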

`CC(C)CC(NC(=O)C(Cc1ccccc1)NC(=O)c1cnccn1)B(O)O` (stereo not given) + Cc1cncc(-c2nc(NCCc3c[nH]c4ccccc34)c3ncn(C(C)C)c3n2)c1 showed an IC50 (second compound 0.1 µM) of 0.00141 µM, an IC50 (second compound 0.316 µM) of 0.00128 µM and an IC50 (second compound 1 µM) of 0.00106 µM. It also gave an IC50 (second compound 3.16 µM) of under 0.000949 µM, an IC50 (second compound 10 µM) of under 0.000949 µM and a viability, T/C (second compound 0.1 µM, first compound 0.000949 µM) of 70.6%. It also gave a viability, T/C (second compound 0.1 µM, first compound 0.003 µM) of 11.2%, a viability, T/C [1] of 1.67% and a viability, T/C [2] of 0.88%. The viability, T/C [3] was 0.78%, the viability, T/C [4] was 0.75% and the viability, T/C (second compound 0.316 µM, first compound 0.000949 µM) was 64.6%. For the same compound, the viability, T/C (second compound 0.316 µM, first compound 0.003 µM) was 8.44%, the viability, T/C [5] was 1.59% and the viability, T/C [6] was 0.9%. The viability, T/C [7] was 0.92%, the viability, T/C [8] was 0.62% and the viability, T/C (second compound 1 µM, first compound 0.000949 µM) was 54.1%. It also gave a viability, T/C (second compound 1 µM, first compound 0.003 µM) of 9.85%, a viability, T/C [9] of 1.7% and a viability, T/C [10] of 0.85%. For the same compound, the viability, T/C [11] was 0.77%, the viability, T/C [12] was 1.06% and the viability, T/C (second compound 3.16 µM, first compound 0.000949 µM) was 20.6%. The viability, T/C (second compound 3.16 µM, first compound 0.003 µM) was 5.89%, the viability, T/C [13] was 1.01% and the viability, T/C [14] was 0.57%. The viability, T/C [15] was 0.58%, the viability, T/C [16] was 0.62% and the viability, T/C (second compound 10 µM, first compound 0.000949 µM) was 2.07%. For the same compound, the viability, T/C (second compound 10 µM, first compound 0.003 µM) was 1.16%, the viability, T/C [17] was 0.23% and the viability, T/C [18] was 0.14%. It also gave a viability, T/C [19] of 0.11% and a viability, T/C [20] of 0.15%.

`CC1COCCN1c1cc(C2(S(C)(=N)=O)CC2)nc(-c2ccnc3[nH]ccc23)n1` (stereo not given) + Cc1cncc(-c2nc(NCCc3c[nH]c4ccccc34)c3ncn(C(C)C)c3n2)c1 gave an IC50 (second compound 0.1 µM) of 5.35 µM, an IC50 (second compound 0.316 µM) of 4.16 µM and an IC50 (second compound 1 µM) of 4.26 µM. It also gave an IC50 (second compound 3.16 µM) of under 0.0316 µM, an IC50 (second compound 10 µM) of under 0.0316 µM and a viability, T/C [21] of 90.9%. The viability, T/C [22] was 97%, the viability, T/C [23] was 93.9% and the viability, T/C [24] was 99.3%. The viability, T/C [25] was 75.3%, the viability, T/C [26] was 20% and the viability, T/C [27] was 90.1%. For the same compound, the viability, T/C [28] was 94.2%, the viability, T/C [29] was 95.5% and the viability, T/C [30] was 89.9%. It also gave a viability, T/C [31] of 61.4%, a viability, T/C [32] of 13.6% and a viability, T/C [33] of 78.7%. For the same compound, the viability, T/C [34] was 72.9%, the viability, T/C [35] was 85.2% and the viability, T/C [36] was 73.4%. The viability, T/C [37] was 61.9%, the viability, T/C [38] was 15.7% and the viability, T/C [39] was 15.7%. The viability, T/C [40] was 15.9%, the viability, T/C [41] was 12.6% and the viability, T/C [42] was 12.1%. For the same compound, the viability, T/C [43] was 8.67%, the viability, T/C [44] was 7.34% and the viability, T/C [45] was 2.06%. It also gave a viability, T/C [46] of 2.37%, a viability, T/C [47] of 2.46% and a viability, T/C [48] of 2.04%. The viability, T/C [49] was 2.07% and the viability, T/C [50] was 2.16%.

In the case of `CCN(c1cc(-c2ccc(CN3CCOCC3)cc2)cc(C(=O)NCc2c(C)cc(C)[nH]c2=O)c1C)C1CCOCC1` + Cc1cncc(-c2nc(NCCc3c[nH]c4ccccc34)c3ncn(C(C)C)c3n2)c1, the IC50 (second compound 0.1 µM) is reported as over 3 µM, the IC50 (second compound 0.316 µM) is reported as over 3 µM and the IC50 (second compound 1 µM) is reported as over 3 µM. For the same compound, the IC50 (second compound 3.16 µM) was under 0.00949 µM, the IC50 (second compound 10 µM) was under 0.00949 µM and the viability, T/C [1] was 98.9%. It also gave a viability, T/C [2] of 85%, a viability, T/C [3] of 98% and a viability, T/C [4] of 96.5%. The viability, T/C (second compound 0.1 µM, first compound 0.949 µM) was 97.7%, the viability, T/C (second compound 0.1 µM, first compound 3 µM) was 80.5% and the viability, T/C [5] was 105%. The viability, T/C [6] was 94.2%, the viability, T/C [7] was 103% and the viability, T/C [8] was 103%. It also gave a viability, T/C (second compound 0.316 µM, first compound 0.949 µM) of 105%, a viability, T/C (second compound 0.316 µM, first compound 3 µM) of 76.5% and a viability, T/C [9] of 82.8%. The viability, T/C [10] was 94%, the viability, T/C [11] was 81% and the viability, T/C [12] was 74.5%. The viability, T/C (second compound 1 µM, first compound 0.949 µM) was 77.2%, the viability, T/C (second compound 1 µM, first compound 3 µM) was 71.9% and the viability, T/C [13] was 19.9%. It also gave a viability, T/C [14] of 17.9%, a viability, T/C [15] of 19.6% and a viability, T/C [16] of 15.1%. The viability, T/C (second compound 3.16 µM, first compound 0.949 µM) was 14.2%, the viability, T/C (second compound 3.16 µM, first compound 3 µM) was 12.3% and the viability, T/C [17] was 3.07%. For the same compound, the viability, T/C [18] was 3.18%, the viability, T/C [19] was 2.66% and the viability, T/C [20] was 2.82%. It also gave a viability, T/C (second compound 10 µM, first compound 0.949 µM) of 2.27% and a viability, T/C (second compound 10 µM, first compound 3 µM) of 1.62%.

Work on `O=C(c1cc(Cc2n[nH]c(=O)c3ccccc23)ccc1F)N1CCN(C(=O)C2CC2)CC1` + CC(CO)NC(=O)c1cc(-c2ccc(Cl)cc2)nn(-c2cnn(C)c2)c1=O yielded an IC50 (second compound 0.1 µM) of over 10 µM, an IC50 (second compound 0.316 µM) of 5.21 µM and an IC50 (second compound 1 µM) of 7.43 µM. The IC50 (second compound 3.16 µM) was 3.54 µM, the IC50 (second compound 10 µM) was 0.482 µM and the viability, T/C [21] was 84.2%. For the same compound, the viability, T/C [22] was 81.6%, the viability, T/C [23] was 82.8% and the viability, T/C [24] was 101%. The viability, T/C [25] was 64.2%, the viability, T/C [26] was 60.1% and the viability, T/C [27] was 101%. It also gave a viability, T/C [28] of 101%, a viability, T/C [29] of 89.7% and a viability, T/C [30] of 64.4%. It also gave a viability, T/C [31] of 63.6%, a viability, T/C [32] of 39.2% and a viability, T/C [33] of 95.5%. The viability, T/C [34] was 74.4%, the viability, T/C [35] was 73.7% and the viability, T/C [36] was 66.9%. It also gave a viability, T/C [37] of 59.8%, a viability, T/C [38] of 44.8% and a viability, T/C [39] of 85.4%. It also gave a viability, T/C [40] of 87.9%, a viability, T/C [41] of 77.9% and a viability, T/C [42] of 61.2%. The viability, T/C [43] was 55.2%, the viability, T/C [44] was 33.7% and the viability, T/C [45] was 42.1%. It also gave a viability, T/C [46] of 60.6%, a viability, T/C [47] of 58.6% and a viability, T/C [48] of 43.5%. The viability, T/C [49] was 38.3% and the viability, T/C [50] was 33.7%.
